{
  "source": "patent US20220000871A1",
  "about": "“METHODS AND COMPOSITIONS FOR TREATING NEURODEGENERATIVE DISEASES USING MODULATORS OF PHOSPHOGLYCERATE KINASE 1 (PGK1) ACTIVITY” (UNIVERSITY OF IOWA RESEARCH FOUNDATION, priority 2019, published 2022)",
  "key": {"[1]": {"tested_on": "mThyl-hSNCA transgenic mice", "test": "mThyl-hSNCA transgenic mice", "format": "in vivo, mouse", "conditions": "TZ 0.03 mg/kg oral from 3 to 15 months old", "from_the_text": "FIG. 5. TZ improves TH levels and motor performance in genetic models of PD. A-E) Wild-type (w^1118) and PINK1^5 flies received TZ or vehicle for 10 days beginning on the first day after eclosion. Day 10 assays included: (A) Example of wing posture defect and percentage of w^1118 and PINK1^5 flies with wing posture defects. N=6, with 80 flies for each treatment in each trial. (B,C) Example of TH western blot (B) and quantification of TH (C). N=5, with 40 fly heads for each treatment in each trial. (D) ATP content in brains (relative to w^1118). N=3, with 200 fly heads for each treatment in each trial. (E) Climbing behavior. N=3, with 100 flies for each treatment in each trial. F) Climbing behavior of LRRK^ex1 male flies. N=6, with 100 flies for each treatment in each trial. […] (I,J) Quantification of α-synuclein in striatum and SNc. […]\nThe rotarod test was carried out using an automated rotarod (E103, UGO BASILE). […] The latency to fall was recorded for a maximum recording time of 600 seconds. The behavior was monitored by a video camera.\nThis test was carried out by leaving a pole in the cage where the mice were housed. […] The time that the mouse took to turn his head from upward to downward (Time: Turn) and the time the mouse took to reach the floor with his forepaws (Time: Locomotion Activity) were recorded. Each mouse was tested three times with 5 min. intervals, and the average time was quantified. […]"}, "[2]": {"tested_on": "cultured cells", "conditions": "reference 18, cited from earlier work"}, "[3]": {"tested_on": "diabetic patients", "conditions": "references 48, 49; cited from earlier work"}},
  "data": [
    {"compound": "COc1cc2nc(N3CCN(C(=O)C4CCCO4)CC3)nc(N)c2cc1OC", "note": "(stereo not shown) [TZ, terazosin]", "values": [
      {"measurement": "human α-synuclein in striatum and SNc and motor performance on rotarod and pole test", "setting": "[1]", "value": "partially prevented"},
      {"measurement": "apoptosis in cultured cells", "setting": "[2]", "value": "inhibited"},
      {"measurement": "PGK1 activity in cultured cells", "setting": "[2]; thereby increasing ATP levels", "value": "enhanced"},
      {"measurement": "glucose metabolism", "setting": "[3]", "value": "improved"}
    ]}
  ]
}
